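Five concentrations, 48 hours, 96-well plates. Abbreviation: GI50, concentration required for 50% inhibition of growth. Definition used: TGI = concentration required for complete inhibition of growth.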
Experiments:
Test in all cases: DTP human tumour cell line panel, 48 h
BT-549 breast = test system: BT-549 breast
HCC-2998 colon = test system: HCC-2998 colon
HCT-15 colon = test system: HCT-15 colon
HL-60(TB) leukemia = test system: HL-60(TB) leukemia
RPMI-8226 leukemia = test system: RPMI-8226 leukemia
RXF 393 renal = test system: RXF 393 renal
SK-MEL-28 melanoma = test system: SK-MEL-28 melanoma
SNB-19 CNS = test system: SNB-19 CNS
SR leukemia = test system: SR leukemia
UACC-257 melanoma = test system: UACC-257 melanoma

SMILES | GI50 (BT-549 breast) | TGI (BT-549 breast) | GI50 (HCC-2998 colon) | TGI (HCC-2998 colon) | GI50 (HCT-15 colon) | TGI (HCT-15 colon) | GI50 (HL-60(TB) leukemia) | TGI (HL-60(TB) leukemia) | GI50 (RPMI-8226 leukemia) | TGI (RPMI-8226 leukemia) | GI50 (RXF 393 renal) | TGI (RXF 393 renal) | GI50 (SK-MEL-28 melanoma) | TGI (SK-MEL-28 melanoma) | GI50 (SNB-19 CNS) | TGI (SNB-19 CNS) | GI50 (SR leukemia) | TGI (SR leukemia) | GI50 (UACC-257 melanoma) | TGI (UACC-257 melanoma)
CC(C)(C)c1ccc(C(=O)N/N=C/c2ccc(O)cc2O)cc1 | 933 nM | 9.53 µM | 695 nM | 7.62 µM | 325 nM | 2.12 µM | 411 nM | 8.27 µM | 784 nM | 20.9 µM | 1610 nM | 12.2 µM | 595 nM | 13.9 µM | 825 nM | 17.9 µM | 317 nM | > 100 µM | 0.557 µM | 21.4 µM
Cc1ccc(C(=O)Nc2ccc(CN3CCN(C)CC3)c(C(F)(F)F)c2)cc1C#Cc1cncc2ncccc12 | 2330 nM | 12.6 µM | 2470 nM | 22.2 µM | 318 nM | 1.28 µM | 282 nM | 1.61 µM | 584 nM | 7.68 µM | 290 nM | 1.05 µM | 286 nM | 1.55 µM | 1290 nM | 2.62 µM | 630 nM | 7.78 µM | 0.402 µM | 4.42 µM
O=C(Cc1ccc(/C=C/C(=O)c2ncc[nH]2)cc1)Nc1ccc(Br)cc1 | 1550 nM | 4.04 µM | 2460 nM | 4.96 µM | 787 nM | 8.83 µM | 2780 nM | 13.9 µM | 705 nM | 4.06 µM | 2400 nM | 4.82 µM | 3070 nM | 6.65 µM | 2540 nM | 7.99 µM | 608 nM | 12.9 µM | 6.64 µM | > 16.7 µM
N#Cc1cc2cc3c4c(c2oc1=O)CCCN4CCC3 |  | > 100 µM |  | > 100 µM |  | > 100 µM |  | > 100 µM |  | > 100 µM |  | > 100 µM |  | > 100 µM |  | > 100 µM |  | > 100 µM |  | > 100 µM
Cn1c2ccccc2c2cc(-c3ccccc3)c3c(c21)C(=O)C=CC3=O |  | 26.5 µM |  | > 88.9 µM |  | 42.1 µM |  | 42.3 µM |  | 8.61 µM |  | 31.1 µM |  | 40.2 µM |  | > 100 µM |  | 17.5 µM |  | 50.9 µM
CC1OC(OC2C(OC3C[C@@]4(C)C(C[C@H](O)[C@H]5[C@H](C6(C)CCC(C(C)(C)O)O6)CCC54C)[C@]4(C)CC[C@@H](O)C(C)(C)C34)OC(CO)C(O)C2O)C(O)C(O)C1O (some centres undefined) (tested in a mixture with another compound) |  | > 100 µM |  | > 100 µM |  | > 100 µM |  | > 100 µM |  | > 100 µM |  | > 100 µM |  | > 100 µM |  | > 100 µM |  | > 100 µM |  | > 100 µM
Clc1ccccc1-c1nc2ccccc2[nH]1 | > 100000 nM | > 100 µM | > 100000 nM | > 100 µM | > 100000 nM | > 100 µM | > 100000 nM | > 100 µM | 94000 nM | > 100 µM | > 100000 nM | > 100 µM | > 100000 nM | > 100 µM | > 100000 nM | > 100 µM | > 100000 nM | > 100 µM | > 100 µM | > 100 µM
O=C1OCC2=C1C(c1cccc(F)c1)c1cc3c(cc1N2CCO)OCCO3 (centres undefined) | 417 nM | 11.4 µM | 768 nM | > 50 µM | 193 nM | > 50 µM | 137 nM | 0.387 µM | 207 nM | > 50 µM | 141 nM | > 50 µM | 1500 nM | > 50 µM | 275 nM | > 50 µM | 78 nM | > 50 µM | > 20 µM | > 50 µM
COC(=O)Nc1nc2c(OC)c(OC)c(OC)cc2[nH]1 | 50400 nM | > 100 µM | 55600 nM | > 100 µM | 5710 nM | > 100 µM | 6330 nM | > 89.5 µM | 35600 nM | > 100 µM | 18400 nM | 66 µM | 52400 nM | > 100 µM | 45700 nM | > 100 µM | 3390 nM | > 75.7 µM | > 100 µM | > 100 µM
COc1ccc(N2CCN(CC(=O)N3CCN(c4nnc(-c5ccccc5)c(-c5ccccc5)n4)CC3)CC2)cc1 | 3470 nM | 33 µM | 9730 nM | > 100 µM | 6070 nM | > 100 µM | 6030 nM | > 43.2 µM | 3980 nM | 31.1 µM | 7880 nM | > 61.2 µM | 11900 nM | > 100 µM | > 33600 nM | > 100 µM | 2410 nM | 6.97 µM | 27.1 µM | > 90.6 µM
CC(=O)OCCC/C(=C\c1ccc2ccccc2c1)[N+](=O)[O-] | 1720 nM | 3.42 µM | 1730 nM | 3.32 µM | 1610 nM | 3.42 µM | > 100000 nM | > 100 µM | 1550 nM | 3.72 µM | 1940 nM | 4.1 µM | 1260 nM | 2.84 µM | 1770 nM | 3.28 µM | 1670 nM | > 100 µM | 1.81 µM | 3.54 µM
O=C(Cc1ccccc1)Nc1nnc(CCSCCc2nnc(NC(=O)Cc3ccccc3)s2)s1 | 5180 nM | 74.8 µM | 89800 nM | > 100 µM | > 100000 nM | > 100 µM | 4260 nM | 65.4 µM | 5670 nM | > 100 µM | 17900 nM | 68.9 µM | 13200 nM | > 100 µM | 11200 nM | 33.3 µM | 13900 nM | 32.6 µM | > 100 µM | > 100 µM
O=C1C2C(C(=O)[N]1[Hg][c]1ccccc1)C1(Cl)C(Cl)=C(Cl)C2(Cl)C1(Cl)Cl (centres undefined) | 1200 nM | 2.49 µM | 2120 nM | 4.1 µM | 583 nM | 2.2 µM | 2510 nM | 8.77 µM | 1640 nM | 5.94 µM | 423 nM | 1.59 µM | 1380 nM | 2.73 µM | 1540 nM | 2.99 µM | 410 nM | 3.46 µM | 1.22 µM | 2.52 µM
OC(COc1ccc(Cl)cc1Cl)CN1CCCC1 (centres undefined) |  | > 100 µM |  | > 100 µM |  | > 100 µM |  | > 100 µM |  | > 100 µM |  | > 100 µM |  | > 100 µM |  | > 100 µM |  | > 100 µM |  | 60.2 µM
COc1ccc(C(=O)Nc2ncc(Cc3ccc(F)cc3)s2)cc1 | 642 nM | > 100 µM | 163 nM | 2.49 µM | 42.9 nM | > 100 µM | 31.5 nM | 0.169 µM | 37.3 nM |  | 66.6 nM | 3.18 µM | 2160 nM | > 100 µM | 96.3 nM | > 100 µM | 33.6 nM | > 100 µM | 7.75 µM | > 100 µM
NC(=O)Nc1ccc2ncnc(Nc3ccc(Cl)cc3)c2c1 | 18900 nM | 67.4 µM | 33500 nM | > 100 µM | 20100 nM | > 100 µM | 25900 nM | 64.4 µM | 24300 nM | > 88.8 µM | 17000 nM | 83.6 µM | 30200 nM | > 100 µM | 14100 nM | > 100 µM | 21300 nM | 75.8 µM | 22 µM | 66 µM
O=C1C=C(N2CC2)c2ccccc2C1=O | 1400 nM | 2.73 µM | 1760 nM | 3.86 µM | 1850 nM | 3.79 µM | 2680 nM | 6.54 µM | 1810 nM | 5.13 µM | 1640 nM | 3.08 µM | 1770 nM | 3.17 µM | 1830 nM | 3.35 µM | 1210 nM | 4.78 µM | 1.69 µM | 3.1 µM
CC12C=CC(C)(O1)C1C2c2ccccc2S1(=O)=O (centres undefined) | 21600 nM | 81.6 µM | > 100000 nM | > 100 µM | 38400 nM | > 100 µM | > 100000 nM | > 100 µM | 44300 nM | > 100 µM | 637 nM | 36.9 µM | 91900 nM | > 100 µM | > 100000 nM | > 100 µM | 15600 nM | > 100 µM | 41.7 µM | > 100 µM

Reference: PubChem BioAssay (NCI)
